Data: US20200331925A1, “HETEROCYCLIC COMPOUNDS FOR THE TREATMENT OF ABNORMAL CELLULAR PROLIFERATION” (G1 Therapeutics, Inc., priority 2018, published 2020)

Assays:
Assay type in all cases: biochemical
CDK7/Cyclin H = CDK7/Cyclin H (Homo sapiens, UniProt P50613); assay: CDK7/Cyclin H kinase assay (Nanosyn, Caliper microfluidic); details: 12-point dose-response, ATP at Km (50 μM), 17 hr
Outline: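 Caliper microfluidic mobility-shift assay with 10 nM CDK7/Cyclin H, 50 μM ATP (Km) and 1 μM peptide substrate, incubated 17 hr. Compounds run in 12-point dose-response, singlicate.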

CDK2/Cyclin A = CDK2/Cyclin A (Homo sapiens, UniProt P24941); assay: CDK2/Cyclin A kinase assay (Nanosyn, Caliper microfluidic); details: 12-point dose-response, ATP at Km (50 μM), 3 hr
Outline: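 Caliper microfluidic mobility-shift read-out; 0.1 nM enzyme, 50 μM ATP (Km), 1 μM peptide substrate, 3 hr incubation. 12-point dose-response in singlicate; staurosporine as reference.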

CDK9/Cyclin T = CDK9/Cyclin T (Homo sapiens, UniProt P50750); assay: CDK9/Cyclin T kinase assay (Nanosyn, Caliper microfluidic); details: 12-point dose-response, ATP at Km (10 μM), 17 hr; Table 5
Outline: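 Caliper microfluidic mobility-shift read-out, 12-point dose-response in singlicate at ATP Km with 1 μM peptide substrate; staurosporine reference.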

CDK3/Cyclin E = CDK3/Cyclin E (Homo sapiens, UniProt Q00526); assay: CDK3/Cyclin E kinase assay (Nanosyn, Caliper microfluidic); details: 12-point dose-response, ATP at Km (400 μM), 3 hr
Outline: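 Caliper microfluidic mobility-shift read-out with 1 nM enzyme, 400 μM ATP (stated as Km) and 1 μM peptide substrate, 3 hr incubation. Compounds run as 12-point dose-response in singlicate.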

CDK4/Cyclin D1 = CDK4/Cyclin D1 (Homo sapiens, UniProt P11802); assay: CDK4/Cyclin D1 kinase assay (Nanosyn, Caliper microfluidic); details: 12-point dose-response, ATP at Km (200 μM), 3 hr; Table 4
CDK4/Cyclin D1, sequence (P11802 whole entry): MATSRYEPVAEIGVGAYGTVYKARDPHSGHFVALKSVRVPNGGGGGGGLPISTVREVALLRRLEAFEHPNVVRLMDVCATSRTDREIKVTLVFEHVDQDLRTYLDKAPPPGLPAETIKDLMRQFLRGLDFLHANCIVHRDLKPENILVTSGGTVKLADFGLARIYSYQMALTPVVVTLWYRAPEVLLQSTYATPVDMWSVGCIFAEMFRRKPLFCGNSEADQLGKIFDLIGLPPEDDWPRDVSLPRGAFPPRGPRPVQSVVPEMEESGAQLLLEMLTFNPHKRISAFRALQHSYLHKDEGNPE
CDK4/Cyclin D1, sequence (P24385 whole entry partner): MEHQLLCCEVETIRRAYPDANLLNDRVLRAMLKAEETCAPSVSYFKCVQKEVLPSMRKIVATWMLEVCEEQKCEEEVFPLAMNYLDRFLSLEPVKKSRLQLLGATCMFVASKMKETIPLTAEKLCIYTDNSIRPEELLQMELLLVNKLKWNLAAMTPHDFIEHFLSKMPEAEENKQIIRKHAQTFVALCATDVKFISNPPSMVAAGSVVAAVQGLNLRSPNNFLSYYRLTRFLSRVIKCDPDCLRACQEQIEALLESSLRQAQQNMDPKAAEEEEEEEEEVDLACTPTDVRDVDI
Outline: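 Caliper microfluidic mobility-shift read-out, 12-point dose-response in singlicate. 1 nM enzyme, 200 μM ATP (Km), 1 μM peptide substrate, 3 hr incubation; staurosporine as reference.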

CDK6/Cyclin D3 = CDK6/Cyclin D3 (Homo sapiens, UniProt Q00534); assay: CDK6/Cyclin D3 kinase assay (Nanosyn, Caliper microfluidic); details: 12-point dose-response, ATP at Km (300 μM), 3 hr
CDK6/Cyclin D3, sequence (Q00534 whole entry): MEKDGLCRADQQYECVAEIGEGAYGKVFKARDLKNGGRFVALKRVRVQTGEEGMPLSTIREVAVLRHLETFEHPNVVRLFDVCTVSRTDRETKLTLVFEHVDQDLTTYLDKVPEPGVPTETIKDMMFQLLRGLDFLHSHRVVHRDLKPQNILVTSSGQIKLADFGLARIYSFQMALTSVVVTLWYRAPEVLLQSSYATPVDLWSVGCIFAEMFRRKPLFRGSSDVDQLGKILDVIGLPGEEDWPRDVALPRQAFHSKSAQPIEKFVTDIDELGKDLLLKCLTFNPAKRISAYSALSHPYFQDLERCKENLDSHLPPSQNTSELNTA
CDK6/Cyclin D3, sequence (P30281 whole entry partner): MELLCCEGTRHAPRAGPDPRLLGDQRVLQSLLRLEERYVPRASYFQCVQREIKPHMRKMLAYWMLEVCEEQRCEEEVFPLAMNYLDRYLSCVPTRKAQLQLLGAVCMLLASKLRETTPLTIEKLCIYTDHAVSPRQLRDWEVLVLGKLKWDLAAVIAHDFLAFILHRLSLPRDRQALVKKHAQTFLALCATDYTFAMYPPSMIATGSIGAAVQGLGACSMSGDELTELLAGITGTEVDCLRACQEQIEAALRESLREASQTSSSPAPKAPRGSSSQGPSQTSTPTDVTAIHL
Outline: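 Caliper microfluidic assay with 2 nM enzyme, 300 μM ATP and 1 μM phosphoacceptor peptide, incubated for 3 hr. Compounds were run as 12-point dose-response curves in singlicate.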

CDK5/p25 = CDK5/p25 (Homo sapiens, UniProt Q00535); assay: CDK5/p25 kinase assay (Nanosyn, Caliper microfluidic); details: 12-point dose-response, ATP at Km (20 μM), 3 hr
CDK5/p25, sequence (Q00535 whole entry): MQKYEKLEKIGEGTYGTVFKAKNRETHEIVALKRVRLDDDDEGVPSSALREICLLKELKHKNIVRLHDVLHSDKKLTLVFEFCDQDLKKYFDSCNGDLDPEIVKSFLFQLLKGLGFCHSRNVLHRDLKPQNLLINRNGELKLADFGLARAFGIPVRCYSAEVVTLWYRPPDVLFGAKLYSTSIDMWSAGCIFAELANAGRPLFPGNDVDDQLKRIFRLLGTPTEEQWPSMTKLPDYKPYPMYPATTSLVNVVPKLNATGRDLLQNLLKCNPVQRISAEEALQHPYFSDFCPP
CDK5/p25, sequence (Q15078 99-307 partner limits assumed): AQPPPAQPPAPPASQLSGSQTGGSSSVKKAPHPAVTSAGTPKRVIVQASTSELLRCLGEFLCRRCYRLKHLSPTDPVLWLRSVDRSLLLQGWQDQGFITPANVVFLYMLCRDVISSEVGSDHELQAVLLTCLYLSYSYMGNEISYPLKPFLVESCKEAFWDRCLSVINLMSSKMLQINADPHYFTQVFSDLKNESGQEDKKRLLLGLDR
Outline: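 Caliper microfluidic mobility-shift assay, 12-point dose-response in singlicate. CDK5/p25 at 0.1 nM with 20 μM ATP (Km) and 1 μM peptide substrate. Incubation 3 hr.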

CDK1/Cyclin B1 = CDK1/Cyclin B1 (Homo sapiens, UniProt P06493); assay: CDK1/Cyclin B1 kinase assay (Nanosyn, Caliper microfluidic); details: 12-point dose-response, ATP at Km (40 μM), 3 hr
CDK1/Cyclin B1, sequence (P06493 whole entry): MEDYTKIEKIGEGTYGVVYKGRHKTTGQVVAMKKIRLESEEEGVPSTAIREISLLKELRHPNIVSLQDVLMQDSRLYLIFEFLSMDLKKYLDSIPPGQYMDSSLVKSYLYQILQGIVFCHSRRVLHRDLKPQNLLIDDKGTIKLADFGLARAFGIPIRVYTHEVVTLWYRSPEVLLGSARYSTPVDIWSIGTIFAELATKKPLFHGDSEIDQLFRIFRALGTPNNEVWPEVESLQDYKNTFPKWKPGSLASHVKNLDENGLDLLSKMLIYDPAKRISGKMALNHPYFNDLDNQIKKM
CDK1/Cyclin B1, sequence (P14635 whole entry partner): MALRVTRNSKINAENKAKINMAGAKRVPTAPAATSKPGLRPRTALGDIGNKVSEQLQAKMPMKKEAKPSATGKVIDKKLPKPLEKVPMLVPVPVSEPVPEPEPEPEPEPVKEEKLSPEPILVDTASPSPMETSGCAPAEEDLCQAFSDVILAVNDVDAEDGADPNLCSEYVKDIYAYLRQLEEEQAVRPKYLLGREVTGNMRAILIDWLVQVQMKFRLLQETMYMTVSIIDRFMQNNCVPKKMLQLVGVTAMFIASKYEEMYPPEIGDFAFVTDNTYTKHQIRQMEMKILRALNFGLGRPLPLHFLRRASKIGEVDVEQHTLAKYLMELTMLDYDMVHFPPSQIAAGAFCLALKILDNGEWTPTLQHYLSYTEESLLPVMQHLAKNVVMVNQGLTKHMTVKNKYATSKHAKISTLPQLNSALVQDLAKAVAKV
Outline: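 Mobility-shift microfluidic kinase assay, 12-point dose-response in singlicate. Conditions: 0.08 nM enzyme, 40 μM ATP (Km), 1 μM peptide substrate, 3 hr incubation; staurosporine as reference.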

CDK2/Cyclin E = CDK2/Cyclin E (Homo sapiens, UniProt P24941); assay: CDK2/Cyclin E kinase assay (Nanosyn, Caliper microfluidic); details: 12-point dose-response, ATP at Km (100 μM), 3 hr
Outline: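 Caliper microfluidic mobility-shift readout of phosphorylation of 1 μM substrate peptide by 0.15 nM enzyme at 100 μM ATP (stated as Km), 3 hr incubation. 12-point dose-response in singlicate, staurosporine as reference.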

CDK5/p35 = CDK5/p35 (Homo sapiens, UniProt Q00535); assay: CDK5/p35 kinase assay (Nanosyn, Caliper microfluidic); details: 12-point dose-response, ATP at Km (20 μM), 3 hr
CDK5/p35, sequence (Q00535 whole entry): as the sequence (Q00535 whole entry) above
CDK5/p35, sequence (Q15078 whole entry partner): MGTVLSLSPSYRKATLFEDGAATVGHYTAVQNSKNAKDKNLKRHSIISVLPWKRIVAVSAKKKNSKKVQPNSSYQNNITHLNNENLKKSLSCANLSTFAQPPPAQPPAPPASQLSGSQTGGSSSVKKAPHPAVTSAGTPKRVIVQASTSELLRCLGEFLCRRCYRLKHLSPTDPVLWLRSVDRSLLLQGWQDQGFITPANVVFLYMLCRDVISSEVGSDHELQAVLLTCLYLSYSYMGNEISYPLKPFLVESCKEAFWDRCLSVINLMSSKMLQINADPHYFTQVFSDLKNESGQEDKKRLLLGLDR
Outline: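 Microfluidic mobility-shift kinase assay with 0.05 nM CDK5/p35, 20 μM ATP (Km) and 1 μM peptide substrate, 3 hr incubation. Compounds tested as 12-point dose–response in singlicate; staurosporine as reference.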

CDK7/Cyclin H, sequence (P50613 whole entry): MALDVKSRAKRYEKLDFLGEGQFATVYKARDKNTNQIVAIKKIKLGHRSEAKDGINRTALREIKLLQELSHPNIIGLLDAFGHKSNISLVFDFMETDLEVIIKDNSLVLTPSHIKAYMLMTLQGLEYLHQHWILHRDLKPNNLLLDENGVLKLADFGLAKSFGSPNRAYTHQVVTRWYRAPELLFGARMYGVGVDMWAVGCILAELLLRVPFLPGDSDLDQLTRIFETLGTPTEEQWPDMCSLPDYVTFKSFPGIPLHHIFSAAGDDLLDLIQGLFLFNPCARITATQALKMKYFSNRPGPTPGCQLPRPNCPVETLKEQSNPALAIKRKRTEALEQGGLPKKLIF
CDK7/Cyclin H, sequence (P51946 whole entry partner): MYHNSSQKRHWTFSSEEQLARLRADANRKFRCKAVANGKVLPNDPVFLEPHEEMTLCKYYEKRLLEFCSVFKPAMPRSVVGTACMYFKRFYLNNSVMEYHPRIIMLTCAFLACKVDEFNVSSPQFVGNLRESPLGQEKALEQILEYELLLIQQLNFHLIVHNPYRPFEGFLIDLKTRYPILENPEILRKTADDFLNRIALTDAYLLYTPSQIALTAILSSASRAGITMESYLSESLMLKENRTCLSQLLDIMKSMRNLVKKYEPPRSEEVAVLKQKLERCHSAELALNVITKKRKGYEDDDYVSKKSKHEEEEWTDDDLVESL
CDK7/Cyclin H, sequence (P51948 whole entry partner): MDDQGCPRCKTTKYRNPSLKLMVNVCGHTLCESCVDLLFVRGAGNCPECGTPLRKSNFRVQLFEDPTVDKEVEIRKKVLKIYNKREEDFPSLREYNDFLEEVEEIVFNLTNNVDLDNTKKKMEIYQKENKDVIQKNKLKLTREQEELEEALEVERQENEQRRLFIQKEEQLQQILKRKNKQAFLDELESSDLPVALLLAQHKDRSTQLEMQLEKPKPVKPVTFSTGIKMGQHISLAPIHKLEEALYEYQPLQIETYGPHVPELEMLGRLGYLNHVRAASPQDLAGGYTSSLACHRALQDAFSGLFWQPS

Compound	IC50 (CDK7/Cyclin H)	IC50 (CDK2/Cyclin A)	IC50 (CDK9/Cyclin T)	IC50 (CDK3/Cyclin E)	IC50 (CDK4/Cyclin D1)	IC50 (CDK6/Cyclin D3)	IC50 (CDK5/p25)	IC50 (CDK1/Cyclin B1)	IC50 (CDK2/Cyclin E)	IC50 (CDK5/p35)
S=C1NCC2(CCCCC2)n2c1cc1cnc(N[C@H]3CCCNC3)nc12 [Compound 40, (S)-2′-(piperidin-3-ylamino)-7′,8′-dihydro-6′H-spiro[cyclohexane-1,9′-pyrazino[1′,2′:1,5]pyrrolo[2,3-d]pyrimidine]-6′-thione]	10 nM	100 nM	3.4 nM	17 nM	23 nM	79 nM	40 nM	61 nM	110 nM	51 nM
C1=NCC2(CCCCC2)n2c1cc1cnc(N[C@@H]3CCCNC3)nc12 [Compound 51, (R)-N-(piperidin-3-yl)-8′H-spiro[cyclohexane-1,9′-pyrazino[1′,2′:1,5]pyrrolo[2,3-d]pyrimidin]-2′-amine]	230 nM	900 nM	200 nM	610 nM	290 nM	1100 nM	1500 nM	1600 nM	490 nM	1500 nM
C[C@H]1CC[C@@H](Nc2ncc3cc4n(c3n2)C2(CCCCC2)CN=C4)CC1 [Compound 53, N-((1s,4s)-4-methylcyclohexyl)-8′H-spiro[cyclohexane-1,9′-pyrazino[1′,2′:1,5]pyrrolo[2,3-d]pyrimidin]-2′-amine]	4600 nM	670 nM	890 nM	850 nM	2900 nM	9000 nM	1500 nM	1500 nM	480 nM	1500 nM
CN(C)[C@H]1CC[C@H](Nc2ncc3cc4n(c3n2)C2(CCCCC2)CNC4=O)CC1 [Compound 45, 2′-(((1,4-trans)-4-(dimethylamino)cyclohexyl)amino)-7′,8′-dihydro-6′H-spiro[cyclohexane-1,9′-pyrazino[1′,2′:1,5]pyrrolo[2,3-d]pyrimidin]-6′-one]	86 nM	140 nM	3.3 nM	240 nM	11 nM	47 nM	360 nM	270 nM	260 nM	310 nM
O=C1NCC2(CCCCC2)n2c1cc1cnc(NC(=O)[C@H]3CNCCN3)nc12 [Compound 36, (R)-N-(6′-oxo-7′,8′-dihydro-6′H-spiro[cyclohexane-1,9′-pyrazino[1′,2′:1,5]pyrrolo[2,3-d]pyrimidin]-2′-yl)piperazine-2-carboxamide]	> 100000 nM	88000 nM	240 nM	> 100000 nM	9400 nM	82000 nM	> 100000 nM	> 100000 nM	> 100000 nM	> 100000 nM

The remaining lines, values ahead:

IC50 (CDK7/Cyclin H)	IC50 (CDK2/Cyclin A)	IC50 (CDK9/Cyclin T)	IC50 (CDK3/Cyclin E)	IC50 (CDK4/Cyclin D1)	IC50 (CDK6/Cyclin D3)	IC50 (CDK5/p25)	IC50 (CDK1/Cyclin B1)	IC50 (CDK2/Cyclin E)	IC50 (CDK5/p35)	Compound
13000 nM	3100 nM	5.5 nM	7200 nM	2900 nM	28000 nM	35000 nM	4400 nM	13000 nM	30000 nM	O=C1NCC2(CCCCC2)n2c1cc1cnc(NC(=O)[C@@H]3CCCNC3)nc12 [Compound 11, (R)-N-(6′-oxo-7′,8′-dihydro-6′H-spiro[cyclohexane-1,9′-pyrazino[1′,2′:1,5]pyrrolo[2,3-d]pyrimidin]-2′-yl)piperidine-3-carboxamide]
27 nM	350 nM	2.6 nM	110 nM	130 nM	370 nM	230 nM	170 nM	550 nM	250 nM	O=C1NCC2(CCCCC2)n2c1cc1cnc(N[C@H]3CCCNC3)nc12 [Compound 47, (S)-2′-(piperidin-3-ylamino)-7′,8′-dihydro-6′H-spiro[cyclohexane-1,9′-pyrazino[1′,2′:1,5]pyrrolo[2,3-d]pyrimidin]-6′-one]
20000 nM	71000 nM	1600 nM	> 100000 nM	120 nM	12000 nM	> 100000 nM	82000 nM	> 100000 nM	> 100000 nM	O=C1NCC2(CCCCC2)n2c1cc1cnc(N[C@@H]3CCCN[C@@H]3c3ccccc3)nc12 [Compound 9, 2′-(((2R,3R)-2-phenylpiperidin-3-yl)amino)-7′,8′-dihydro-6′H-spiro[cyclohexane-1,9′-pyrazino[1′,2′:1,5]pyrrolo[2,3-d]pyrimidin]-6'-one]
7200 nM	11000 nM	440 nM	18000 nM	100 nM	530 nM	25000 nM	27000 nM	24000 nM	26000 nM	O=C1NCC2(CCCCC2)n2c1cc1cnc(N[C@@H]3C[C@@H](O)CNC3=O)nc12 [Compound 8, 2′-(((3R,5R)-5-hydroxy-2-oxopiperidin-3-yl)amino)-7′,8′-dihydro-6′H-spiro[cyclohexane-1,9′-pyrazino[1′,2′:1,5]pyrrolo[2,3-d]pyrimidin]-6′-one]
4500 nM	1900 nM	45 nM	6900 nM	1500 nM	15000 nM	8400 nM	3800 nM	5400 nM	8000 nM	C[C@H]1NCCC[C@H]1C(=O)Nc1ncc2cc3n(c2n1)C1(CCCCC1)CNC3=O [Compound 30, (2R,3R)-2-methyl-N-(6′-oxo-7′,8′-dihydro-6′H-spiro[cyclohexane-1,9′-pyrazino[1′,2′:1,5]pyrrolo[2,3-d]pyrimidin]-2′-yl)piperidine-3-carboxamide]
110 nM	140 nM	2.1 nM	290 nM	14 nM	71 nM	320 nM	310 nM	220 nM	350 nM	O=C1NCC2(CCCCC2)n2c1cc1cnc(N[C@H]3CC[C@H](NCc4cccnc4)CC3)nc12 [Compound 21, 2′-(((1,4-trans)-4-((pyridin-3-ylmethyl)amino)cyclohexyl)amino)-7′,8′-dihydro-6′H-spiro[cyclohexane-1,9′-pyrazino[1′,2′:1,5]pyrrolo[2,3-d]pyrimidin]-6′-one]
230 nM	180 nM	4.7 nM	400 nM	14 nM	78 nM	370 nM	360 nM	310 nM	370 nM	O=C1NCC2(CCCCC2)n2c1cc1cnc(N[C@H]3CC[C@H](NCc4ccccc4F)CC3)nc12 [Compound 20, 2′-(((1,4-trans)-4-((2-fluorobenzyl)amino)cyclohexyl)amino)-7′,8′-dihydro-6′H-spiro[cyclohexane-1,9′-pyrazino[1′,2′:1,5]pyrrolo[2,3-d]pyrimidin]-6′-one]
100 nM	33 nM	2.2 nM	110 nM	6.8 nM	40 nM	140 nM	140 nM	72 nM	160 nM	N[C@H]1CC[C@H](Nc2ncc3cc4n(c3n2)C2(CCCCC2)CNC4=O)CC1 [Compound 49, 2′-(((1r,4r)-4-aminocyclohexyl)amino)-7′,8′-dihydro-6′H-spiro[cyclohexane-1,9′-pyrazino[1′,2′:1,5]pyrrolo[2,3-d]pyrimidin]-6′-one]
